Drawing on ChEMBL document CHEMBL1158650, “Isolation in High Yield of Citrinin From Penicillium odoratum and of Mycophenolic Acid From Penicillium brunneo-stoloniferum” (1979), this text covers MIC for 2 compounds.

A word on the MIC: it is the smallest concentration in the dilution series that meets the test's criterion for growth inhibition. Low values mean inhibition by little substance, high ones a need for much substance.

Holding throughout (assay type): functional
For one experiment, the system named is Bacillus subtilis. The experiment is described as follows: Antibacterial activity against Bacillus subtilis IFO 3108 by twofold dilution method.
For a further experiment, the system named is Alternaria. The experiment is described as follows: Antifungal activity against Alternaria maritima IFO 8618 by twofold dilution method.
In another experiment the test system is Fusarium graminearum. The experiment is described as follows: Antifungal activity against Gibberella zeae IFO 4474 by twofold dilution method.

The structures appear in SMILES notation. Converted amounts (≈) assume the structure as drawn.

Consider `CC1=C2C(=CO[C@H](C)[C@H]2C)C(O)=C(C(=O)O)C1=O` [CITRININ], for which the MIC in the experiment on Bacillus subtilis was found to be 25 µg/mL (≈ 99.9 µM).
Regarding `COc1c(C)c2c(c(O)c1C/C=C(\C)CCC(=O)O)C(=O)OC2` [MYCOPHENOLIC ACID], the minimum inhibitory concentration (MIC) against Alternaria and in the experiment with Fusarium graminearum was 200 µg/mL (≈ 624 µM) each time.
